This data set concerns the target T1, estrogen receptors (Homo sapiens, UniProt P03372).
T1 construct: expressed in transfected cells; host or cells: HELN-ERα cell line (HeLa-derived, per own knowledge of Escande et al. 2006)
T1 sequence (P03372 1-595): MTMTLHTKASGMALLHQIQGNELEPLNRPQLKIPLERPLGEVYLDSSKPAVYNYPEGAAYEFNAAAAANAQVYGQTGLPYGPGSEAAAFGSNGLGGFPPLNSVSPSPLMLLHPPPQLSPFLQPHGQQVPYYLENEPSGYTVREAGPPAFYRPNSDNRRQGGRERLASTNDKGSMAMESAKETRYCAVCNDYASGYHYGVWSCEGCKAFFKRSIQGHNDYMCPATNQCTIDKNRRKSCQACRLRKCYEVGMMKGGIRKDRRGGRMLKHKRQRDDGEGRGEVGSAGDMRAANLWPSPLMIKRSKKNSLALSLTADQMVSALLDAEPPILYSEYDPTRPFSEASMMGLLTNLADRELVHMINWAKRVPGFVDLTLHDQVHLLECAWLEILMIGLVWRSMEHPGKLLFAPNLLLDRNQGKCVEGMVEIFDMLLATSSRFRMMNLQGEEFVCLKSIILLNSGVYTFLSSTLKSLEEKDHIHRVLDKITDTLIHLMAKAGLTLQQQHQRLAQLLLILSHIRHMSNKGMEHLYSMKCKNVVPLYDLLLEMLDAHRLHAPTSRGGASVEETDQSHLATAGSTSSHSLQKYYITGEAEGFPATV
In words: Test for toxicity with respect to estrogen receptors on the HELN-ERα cell line. Format: cell-based. Particulars: for interaction with estrogen receptors (% of antagonist activity with respect to estradiol (E2) at 10 nM): FIG. 12, result in words. Here is the method:
A test for toxicity with respect to estrogen receptors was carried out for the IDF, PDF, GDF and BDF macrobisphenols, according to the method set out in the publication by Molina-Molina et al., 2008 (Toxicol. Appl. Pharmacol., doi: 10.1016/j.taap.2008.07.017), on the HELN-ERα cell line, described in the publication by Escande et al., 2006 (Biochemical Pharmacology, 71, 1459-1469).
The results obtained, expressed as % of antagonist activity with respect to the activity of estradiol (E2) at 10 nM, as a function of the monomer concentration, are shown in FIG. 12.

In the case of `COc1cc(CCC(=O)OCCCOC(=O)CCc2ccc(O)c(OC)c2)ccc1O` [PDF, propane-1,3-di(dihydroferulate)], the “interaction with estrogen receptors (% of antagonist activity with respect to estradiol (E2) at 10 nM)” value was “interact only very little”. Regarding `CC(C)(c1ccc(O)cc1)c1ccc(O)cc1` [bisphenol A, reference compound], the “percentage activity with respect to the activity of estradiol (E2) at 10 nM” value (at 10^−5 M) was determined as 60% and the “percentage activity with respect to the activity of estradiol (E2) at 10 nM” value (at 10^−6 M) is reported as 45%. For the molecule `COc1cc(CCC(=O)OCC(O)COC(=O)CCc2ccc(O)c(OC)c2)ccc1O` [GDF, glycerol-3-di(dihydroferulate)], the “interaction with estrogen receptors (% of antagonist activity with respect to estradiol (E2) at 10 nM)” value is “interact only very little”. The same measure, in the same setting: then `COc1cc(CCC(=O)O[C@H]2CO[C@H]3[C@@H]2OC[C@H]3OC(=O)CCc2ccc(O)c(OC)c2)ccc1O` [IDF, isosorbide-2,5-(dihydroferulate)], with “interact only very little”. Still for that read-out and setting: the same measure for `COc1cc(CCC(=O)OCCCCOC(=O)CCc2ccc(O)c(OC)c2)ccc1O` [BDF, butane-1,4-di(dihydroferulate)]: “interact only very little”.
